Assays:
[1] = Inhibition of Marthasterias glacialis CDK1/cyclin-B assessed as [gamma-33P]ATP incorporation after 10 mins by scintillation counting
[2] = molecular target: Cyclin-dependent kinase 5/CDK5 activator 1 (Homo sapiens, UniProt Q00535); experiment: Inhibition of GST-fused CDK5/p25 expressed in Escherichia coli assessed as [gamma-33P]ATP incorporation after 10 mins by scintillation counting
[3] = molecular target: Glycogen synthase kinase-3 (Sus scrofa, UniProt B2LUN4+I6LNT8); experiment: Inhibition of porcine brain GSK3alpha/beta assessed as [gamma-33P]ATP incorporation after 30 mins by scintillation counting
[4] = Inhibition of porcine brain CK1 assessed as [gamma-33P]ATP incorporation after 10 mins by scintillation counting; design: species or system Sus scrofa
[5] = molecular target: Dual specificity tyrosine-phosphorylation-regulated kinase 1A (Rattus norvegicus, UniProt Q63470); experiment: Inhibition of GST-fused rat recombinant DYRK1A expressed in Escherichia coli assessed as [gamma-33P]ATP incorporation after 10 mins by scintillation counting
[6] = test system: Huh-7; experiment: Antiproliferative activity against human HuH7 cells after 72 hrs by imaging analysis; type: functional, cell-based; settings: Huh-7, 72 h
[7] = test system: Caco-2; experiment: Antiproliferative activity against human Caco-2 cells after 72 hrs by imaging analysis; type: functional, cell-based; settings: Caco-2, 72 h
[8] = test system: HCT-116; experiment: Antiproliferative activity against human HCT116 cells after 72 hrs by imaging analysis; type: functional, cell-based; settings: HCT-116, 72 h
[9] = test system: PC-3; experiment: Antiproliferative activity against human PC3 cells after 72 hrs by imaging analysis; type: functional, cell-based; settings: PC-3, 72 h
[10] = Antiproliferative activity against human NCI/ADR cells after 72 hrs by imaging analysis; type: functional, cell-based; settings: NCI/ADR-RES
[11] = Antiproliferative activity against human fibroblast after 72 hrs by imaging analysis; type: cell-based

Chain of Cyclin-dependent kinase 5/CDK5 activator 1 (Q00535 whole entry, the tested form may be a part): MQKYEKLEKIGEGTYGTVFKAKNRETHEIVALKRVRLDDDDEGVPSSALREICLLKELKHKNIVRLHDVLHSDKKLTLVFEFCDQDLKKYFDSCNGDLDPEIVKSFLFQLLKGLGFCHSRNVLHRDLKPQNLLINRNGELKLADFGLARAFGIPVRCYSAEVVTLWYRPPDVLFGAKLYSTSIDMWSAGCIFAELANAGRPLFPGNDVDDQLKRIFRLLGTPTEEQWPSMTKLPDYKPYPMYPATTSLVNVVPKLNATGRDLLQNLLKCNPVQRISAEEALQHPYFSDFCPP
Chain of Cyclin-dependent kinase 5/CDK5 activator 1 (Q15078 whole entry, further chain, the tested form may be a part): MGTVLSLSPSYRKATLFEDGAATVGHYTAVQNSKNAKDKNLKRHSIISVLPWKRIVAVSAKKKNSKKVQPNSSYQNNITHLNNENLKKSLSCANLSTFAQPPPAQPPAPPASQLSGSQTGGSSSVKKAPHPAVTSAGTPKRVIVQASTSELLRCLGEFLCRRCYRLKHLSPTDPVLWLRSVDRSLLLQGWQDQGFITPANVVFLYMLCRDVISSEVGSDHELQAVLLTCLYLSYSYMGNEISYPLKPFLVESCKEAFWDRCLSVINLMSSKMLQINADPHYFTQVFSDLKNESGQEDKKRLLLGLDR

SMILES | IC50 [1] [µM] | IC50 [2] [µM] | IC50 [3] [µM] | IC50 [4] [µM] | IC50 [5] [µM] | IC50 [6] [µM] | IC50 [7] [µM] | IC50 [8] [µM] | IC50 [9] [µM] | IC50 [10] [µM] | IC50 [11] [µM]
O=Nc1c(-c2c(O)[nH]c3ccc([N+](=O)[O-])cc23)[nH]c2ccccc12 | 0.019 | 0.006 | 0.0021 | > 10 | 1.3 |  |  |  |  |  | 
CC(=O)Nc1ccc2c(c1)/C(=C1/Nc3ccccc3/C1=N\O)C(=O)N2 | 0.088 | 0.16 | 0.35 | 0.4 | 15 |  |  |  |  |  | 
CC(=O)Nc1ccc2c(c1)/C(=C1/Nc3ccccc3C1=O)C(=O)N2 | 0.05 | 0.018 | 0.0075 | 8 | 2.5 | 2 | 5 | 2 | 2 | 10 | > 25
O=C1Nc2cc([N+](=O)[O-])ccc2/C1=C1/Nc2ccccc2C1=O | > 10 | > 10 | 60 | > 10 |  | > 25 | 3 | 5 | 15 | 2 | > 25
Nc1ccc2c(c1)NC(=O)/C2=C1\Nc2ccccc2\C1=N/O | 1 | 0.2 | 0.18 | 0.5 |  |  |  |  |  |  | 
O=C1Nc2cc([N+](=O)[O-])ccc2/C1=C1/Nc2ccccc2/C1=N\O | 0.18 | 0.12 | 0.04 | 0.6 |  |  |  |  |  |  | 
O=C1Nc2c(Br)cc([N+](=O)[O-])cc2/C1=C1/Nc2ccccc2/C1=N\O | > 10 | > 10 | > 10 | > 10 | > 10 |  |  |  |  |  | 
O=C1Nc2ccccc2/C1=C1\C(=O)Nc2ccc([N+](=O)[O-])cc21 |  |  |  |  |  | > 25 | > 25 | > 25 | > 25 | 25 | > 25
Nc1ccc2c(c1)/C(=C1/Nc3ccccc3/C1=N\O)C(=O)N2 | 0.1 | 0.15 | 0.36 | 0.13 | 4.2 |  |  |  |  |  | 
CC(=O)Nc1ccc2c(c1)/C(=C1/Nc3ccc(Br)cc3C1=O)C(=O)N2 | 0.055 | 0.11 | 0.073 | > 10 | 7.3 |  |  |  |  |  | 
O=C1Nc2c(Br)cc([N+](=O)[O-])cc2/C1=C1/Nc2ccccc2C1=O | > 10 | > 10 | > 10 | > 10 | > 10 |  |  |  |  |  | 
O=C1Nc2cc([N+](=O)[O-])ccc2/C1=C1/Nc2ccc(Br)cc2C1=O | > 10 | > 10 | > 10 | > 10 |  |  |  |  |  |  | 
O=C1Nc2cc([N+](=O)[O-])ccc2/C1=C1/Nc2ccc(Br)cc2/C1=N\O | 7 | 0.3 | 0.7 | 18 |  |  |  |  |  |  | 
Nc1ccc2c(c1)NC(=O)/C2=C1\Nc2ccccc2C1=O | 30 | 4 | 0.36 | 16 |  | > 25 | 5 | > 25 | 25 | 25 | > 25
CC(=O)O[C@H]1C(=O)[C@@]2(C)[C@H]([C@H](OC(=O)c3ccccc3)[C@]3(O)C[C@H](OC(=O)[C@H](O)[C@@H](NC(=O)c4ccccc4)c4ccccc4)C(C)=C1C3(C)C)[C@]1(OC(C)=O)CO[C@@H]1C[C@@H]2O [PACLITAXEL] |  |  |  |  |  | 0.008 | 0.02 | < 0.0008 | < 0.0008 | 0.004 | 0.03
CC[C@H](CO)Nc1nc(NCc2ccccc2)c2ncn(C(C)C)c2n1 [SELICICLIB] |  |  |  |  |  | 5 |  | 5 | 8 | 6 | > 25

Now from value to compound, other results behind:

IC50 [1] [µM] | IC50 [2] [µM] | IC50 [3] [µM] | IC50 [4] [µM] | IC50 [5] [µM] | IC50 [6] [µM] | IC50 [7] [µM] | IC50 [8] [µM] | IC50 [9] [µM] | SMILES | IC50 [10] [µM] | IC50 [11] [µM]
0.16 | 0.05 | 0.055 | > 10 | > 10 |  |  |  |  | O=C1Nc2ccc([N+](=O)[O-])cc2/C1=C1/Nc2ccc(Br)cc2/C1=N/O |  | 
40 | 25 | 19 | > 10 | > 10 |  |  |  |  | O=C1C(c2c(O)[nH]c3ccc([N+](=O)[O-])cc23)=Nc2ccccc21 |  | 
1.5 | 0.59 | 0.08 | 0.65 | 2.5 | 6 | 2 | 15 | 5 | Nc1ccc2c(c1)/C(=C1/Nc3ccccc3C1=O)C(=O)N2 | 20 | > 25
1.4 | 3.3 | 40 | > 10 | > 10 |  |  |  |  | CC(=O)Nc1ccc2c(c1)/C(=C1/Nc3ccc(Br)cc3/C1=N\O)C(=O)N2 |  | 
> 10 | > 10 | > 10 | > 10 | > 10 |  |  |  |  | O=C1Nc2ccc([N+](=O)[O-])cc2/C1=C1/Nc2ccc(Br)cc2C1=O |  | 
> 10 | > 10 | > 10 | > 10 | > 10 |  |  |  |  | O=C1Nc2c(Br)cc([N+](=O)[O-])cc2/C1=C1/Nc2ccc(Br)cc2/C1=N\O |  | 
> 10 | > 10 | > 10 | > 10 | > 10 |  |  |  |  | O=C1Nc2c(Br)cc([N+](=O)[O-])cc2/C1=C1/Nc2ccc(Br)cc2C1=O |  | 
0.41 | 1 | 6.6 | > 10 | > 10 |  |  |  |  | Nc1ccc2c(c1)/C(=C1/Nc3ccc(Br)cc3/C1=N\O)C(=O)N2 |  | 
0.6 | 0.55 | 0.44 | 2.7 | > 10 |  |  |  |  | Nc1ccc2c(c1)/C(=C1/Nc3ccc(Br)cc3C1=O)C(=O)N2 |  | 
 |  |  |  |  | > 25 | > 25 | > 25 | 25 | Nc1ccc2c(c1)/C(=C1\C(=O)Nc3ccccc31)C(=O)N2 [(3'Z)-5-AMINOISOINDIGO] | 25 | > 25

— ChEMBL document CHEMBL1152528, “Synthesis and kinase inhibitory activity of novel substituted indigoids” (Bioorg Med Chem, 2009)
